{"source": "patent US20030166648A1", "about": "“Felbamate derived compounds” (priority 2002, published 2003)", "key": {"[1]": {"settings": "human; cited from earlier work"}, "[2]": {"experiment": "LC/MS quantification of felbamate and metabolites in patient urine", "assay_type": "in vivo, human", "settings": "highest value; patient with total daily dose of 6.0 grams of felbamate", "method": "Preparation of Patient Urine Samples.\nUrine samples were obtained from patient volunteers undergoing felbamate therapy for control of epileptic seizures and under the care of physicians at either the University of Virginia (Charlottesville, Va.) or the EpiCare Center (Memphis, Tenn.). Urine samples were diluted four fold with distilled water (this was done prior to overnight shipment for samples requiring shipping) and placed in an orbital shaking water bath for ˜20 min at 37° C. to insure that all of the analytes were in solution. 500 μL of this diluted sample were removed and added to 100 μL of a mixture of the four deuterated internal standards. […] After mixing, 200 μL were removed and added to 20 μL of 20% H0Ac. […] This fraction was then analyzed by LC/MS without further manipulation.\nLC/MS Analysis of Urine Samples for Metabolite Quantification.\nLC/MS analysis was performed using a Waters 2690 HPLC equipped with an autosampler and a Waters 486 tunable absorbance detector. […] The post-column flow was directed through a Waters 486 tunable absorbance detector (10 μL flow cell, λ=214 nm) which was used for qualitative assessment of the sample and not for quantitation. […]\nQuantification was achieved by integration of the peaks from the mass chromatogram for each analyte using software (Navigator 1.1) provided with the LCQ. […]"}, "[3]": {"tested_on": "painful peripheral neuropathy", "settings": "rat model of painful peripheral neuropathy; cited from earlier work"}, "[4]": {"experiment": "Minimal neurotoxicity (TOX), rotorod test, mice i.p.", "assay_type": "in vivo", "settings": "for TOX, number of animals exhibiting toxic effects/total number tested: mice i.p.", "source_text": "The fluoro derivatives synthesized were submitted to the National Institute of Neurological Disorders and Stroke (NINDS) for evaluation in a standard panel of assays. Two convulsant tests (MES and scMET), and a toxicity screen (rotorod in mice, positional sense and gait in rats) were employed for evaluating the compounds activity as neuroprotecting agents. These testing procedures are described in detail in Molecular and Cellular Targets for Anti-epileptic Drugs, eds. […] The felbamate derivatives were evaluated for anticonvulsant activity following intraperitoneal (i.p.) administration in mice and oral administration in rats. […]"}, "[5]": {"tested_on": "focal seizures of hippocampal kindled rats", "experiment": "Hippocampal kindling model (kindled rats), i.p.", "assay_type": "in vivo, Sprague-Dawley rats", "settings": "100 mg/kg", "source_text": "The Hippocampal Kindling Model\nThe hippocampal kindling model can be used to evaluate a compound's ability to affect both the expression and acquisition of focal seizures. The hippocampal kindling paradigm as described by Lothman and Williamson (Lothman, 1994) allows the temporal effects of a drug to be evaluated in a single animal. This procedure requires the surgical placement of bipolar electrodes in the ventral hippocampus of adult male Sprague-Dawley rats. Stage five behavioral seizures are produced by using a stimulus consisting of a 50 Hz, 10 s train of 1 ms biphasic 200 uA pulses delivered every 30 min for 6 hours (12 stimuli per day) on alternating days for a total of 60 stimulations (five stimulus days). Prior to evaluating a candidate's anticonvulsant activity, a drug free control period consisting of supramaximal stimulations are recorded to verify the stability of a stage five generalized seizure.\nA single dose of the candidate compound is then administered intraperitoneally (i.p.), 15 min following the last control stimulation. The anticonvulsant activity of the drug is assessed every 30 min for three to four hours starting 15 min after administering the test material. After each stimulation, individual Racine seizure scores and afterdischarge durations are recorded. Rats are used again in drug trials after four to five drug- and stimulus-free days."}, "[6]": {"tested_on": "MES-induced seizure spread", "experiment": "Maximal electroshock seizure (MES) test, mice i.p.", "assay_type": "in vivo", "settings": "mice, 30 mg/kg, at both 30 minutes and 4 hours", "source_text": "(§1) The fluoro derivatives synthesized were submitted to the National Institute of Neurological Disorders and Stroke (NINDS) for evaluation in a standard panel of assays. Two convulsant tests (MES and scMET), and a toxicity screen (rotorod in mice, positional sense and gait in rats) were employed for evaluating the compounds activity as neuroprotecting agents. These testing procedures are described in detail in Molecular and Cellular Targets for Anti-epileptic Drugs, eds. G. Avanzini, G. Regesta, P. Tanganelli, M. Avoli, 1997, John Libbey & Company Ltd, pp 191-198. The felbamate derivatives were evaluated for anticonvulsant activity following intraperitoneal (i.p.) administration in mice and oral administration in rats.\n(§2) The Maximal Electroshock Seizure (MES)\n(§3) The MES test is a model for generalized tonic-clonic seizures and is used to identify compounds which prevent seizure spread. The behavioral and electrographic seizures generated in this model are consistent with the human disorder. In the MES test, an electrical stimulus of 0.2 s in duration (50 mA in mice and 150 mA in rat at 60 Hz) was delivered via corneal electrodes primed with an electrolyte solution containing an anesthetic agent. Mice were tested at 30 minutes and 4 hours following doses of 30, 100 and 300 mg/kg of test compound. Rats were tested at time intervals between 0.25 and 4 hours following a standard oral dose of 30 mg/kg. Abolition of the hindlimb tonic extensor component indicates the test compound's ability to inhibit MES-induced seizure spread.\n(§4) For the MES and scMET tests the data is presented in the form of the number of animals protected by the administered compound/total number of animals tested. […] Qualitative data was obtained for fluoro felbamate 12 (Tables 1 and 2A), fluoro monocarbamate felbamate 13 (Tables 1 and 2B), and fluorodioxo 16 (Tables 1 and 2C) and for cyclic felbamate 21 (Tables 5 and 6B) and cyclic monocarbamate 22 (Tables 5 and 6A). More extensive quantitative data was also obtained for fluoro felbamate 12 in mice (Table 3) and rats (Table 4)."}, "[7]": {"experiment": "Minimal neurotoxicity (TOX), positional sense and gait and stance tests, rats p.o.", "assay_type": "in vivo", "settings": "for TOX, number of animals exhibiting toxic effects/total number tested: rat p.o., 30 mg/kg", "source_text": "The fluoro derivatives synthesized were submitted to the National Institute of Neurological Disorders and Stroke (NINDS) for evaluation in a standard panel of assays. Two convulsant tests (MES and scMET), and a toxicity screen (rotorod in mice, positional sense and gait in rats) were employed for evaluating the compounds activity as neuroprotecting agents. These testing procedures are described in detail in Molecular and Cellular Targets for Anti-epileptic Drugs, eds. […] The felbamate derivatives were evaluated for anticonvulsant activity following intraperitoneal (i.p.) administration in mice and oral administration in rats.\nRats are examined for behavioral toxicity by the positional sense test and a gait and stance test. […] In the gait and stance test, neurotoxicity is indicated by a circular or zigzag gait, ataxia, abnormal spread of the legs, abnormal posture, tremor hyperactivity, lack of exploratory behavior, somnolence, stupor or catalepsy. […]"}, "[8]": {"tested_on": "MES-induced seizure spread", "experiment": "Maximal electroshock seizure (MES) test, rats p.o.", "assay_type": "in vivo", "source_text": "as §1, §2, §3, §4"}, "[9]": {"experiment": "Toxicity, oral administration to mice", "assay_type": "in vivo", "settings": "doses up to 218 mg/kg", "method": "Toxicity induced by a compound is detected in mice using the standardized rotorod test described by Dunham & Miya (1957). Untreated control mice, when placed on a 6 r.p.m. rotation rod, can maintain their equilibrium for a prolonged period of time.\nToxicity across time doe not occur until dosages of 300 mg/kg. […] Quantitative results obtained for fluoro felbamate 12 in mice indicated a MES ED50 of approximately 20 mg/kg with a safety ratio of at least five (see Table 3). Results obtained for oral administration of fluoro felbamate 12 to rats indicated a MES ED50 of about 3 mg/kg with no toxicity at doses up to 500 mg/kg."}, "seizures": {"tested_on": "seizures", "experiment": "NINDS anticonvulsant panel (MES, scMET), overall statements", "assay_type": "in vivo", "source_text": "as §1, §4"}, "[10]": {"experiment": "Stability of oxazinane-dione at relevant pH", "assay_type": "physicochemical", "source_text": "It is anticipated, therefore, that the oxazinane-dione 9 is responsible for some aspects of felbamate's efficacy in vivo. As patients undergoing felbamate therapy for seizure control ingest large quantities of felbamate (grams per day), even a 1-2% conversion to a pharmacologically active metabolite could have significant effects. […] In light of the possibility that the oxazinane-dione 9 could be a metabolic precursor to the major human metabolite, acid carbamate 4, it may be formed in significant quantities (the acid carbamate was reported to represent ˜ 12% of a dose). […] Also included in this class are cyclic congeners 21 and 22, which may be formed from felbamate derivatives (see scheme II). Also included is 20, which may be an unknown metabolite of felbamate 1 and could be produced from felbamate derivative 12 by the cytochrome P450 metabolism."}}, "note": "Marks after values point to notes of the source that are not given here.", "data": [{"smiles": "NC(=O)CC(C(=O)O)c1ccccc1", "note": "(stereo not drawn) [acid carbamate 4, 3-carbamoyl-2-phenylpropionic acid]", "values": [{"measurement": "fraction of a felbamate dose found as acid carbamate", "setting": "[1]", "result": "~12", "unit": "%"}]}, {"smiles": "NC(=O)OCC(COC(N)=O)c1ccccc1", "note": "[felbamate, 2-phenyl-1,3-propanediol dicarbamate]", "values": [{"measurement": "amount of felbamate excreted per mL of urine", "setting": "[2]", "result": "10,064±515 nMoles/mL"}, {"measurement": "effect on measures of pain (in words)", "setting": "[3]", "result": "significant reductions in all measures of pain"}]}, {"smiles": "NC(=O)OCC(F)(COC(N)=O)c1ccccc1", "note": "[fluoro felbamate, 2-Fluoro-2-phenyl-1,3-propanediol dicarbamate]", "values": [{"measurement": "TOX, number of animals exhibiting toxic effects/total number tested", "setting": "[4]; 3 mg/kg, 0.5 h", "result": "0/4"}, {"measurement": "TOX, number of animals exhibiting toxic effects/total number tested", "setting": "[4]; 3 mg/kg, 4.0 h", "result": "0/4"}, {"measurement": "TOX, number of animals exhibiting toxic effects/total number tested", "setting": "[4]; 10 mg/kg, 0.5 h", "result": "0/4"}, {"measurement": "TOX, number of animals exhibiting toxic effects/total number tested", "setting": "[4]; 10 mg/kg, 4.0 h", "result": "0/4"}, {"measurement": "TOX, number of animals exhibiting toxic effects/total number tested", "setting": "[4]; 30 mg/kg, 0.5 h", "result": "1/4"}, {"measurement": "TOX, number of animals exhibiting toxic effects/total number tested", "setting": "[4]; 30 mg/kg, 4.0 h", "result": "0/2"}, {"measurement": "TOX, number of animals exhibiting toxic effects/total number tested", "setting": "[4]; 100 mg/kg, 0.5 h", "result": "4/8"}, {"measurement": "TOX, number of animals exhibiting toxic effects/total number tested", "setting": "[4]; 100 mg/kg, 4.0 h", "result": "0/4"}, {"measurement": "TOX, number of animals exhibiting toxic effects/total number tested", "setting": "[4]; 300 mg/kg, 0.5 h", "result": "4/4"}, {"measurement": "TOX, number of animals exhibiting toxic effects/total number tested", "setting": "[4]; 300 mg/kg, 4.0 h", "result": "2/2"}, {"measurement": "safety ratio", "setting": "[4]; mice, relative to MES ED50", "result": "at least five"}, {"measurement": "effect on afterdischarge duration (in words)", "setting": "[5]", "result": "corresponding decrease in afterdischarge duration"}, {"measurement": "effect on seizure score (in words)", "setting": "[5]", "result": "significant drop in seizure score"}, {"measurement": "Number Protected / Number Tested", "setting": "[5]; Dose Responses, i.p.", "result": "7/8^a"}, {"measurement": "MES protection (in words)", "setting": "[6]", "result": "MES protective effects"}, {"measurement": "toxicity", "setting": "[7]; oral administration to rats, doses up to 500 mg/kg", "result": "no toxicity"}, {"measurement": "TOX, number of animals exhibiting toxic effects/total number tested", "setting": "[7]; 0.25 h", "result": "0/4"}, {"measurement": "TOX, number of animals exhibiting toxic effects/total number tested", "setting": "[7]; 0.5 h", "result": "0/4"}, {"measurement": "TOX, number of animals exhibiting toxic effects/total number tested", "setting": "[7]; 1.0 h", "result": "0/4"}, {"measurement": "TOX, number of animals exhibiting toxic effects/total number tested", "setting": "[7]; 2.0 h", "result": "0/4"}, {"measurement": "TOX, number of animals exhibiting toxic effects/total number tested", "setting": "[7]; 4.0 h", "result": "1/4"}, {"measurement": "MES ED50", "setting": "[8]; rat, p.o.", "result": 3.0, "unit": "mg/kg"}, {"measurement": "MES protection (in words)", "setting": "[8]; rats p.o., 30 mg/kg, over several timepoints", "result": "full protection"}, {"measurement": "toxicity", "setting": "[9]", "result": "no toxicity"}, {"measurement": "anti-seizure activity (in words)", "setting": "seizures; overall statement", "result": "show anti-seizure activity"}, {"measurement": "activity relative to felbamate (times more active)", "setting": "seizures; test not specified", "result": "5-10 times"}]}, {"smiles": "O=C1NC(=O)C(c2ccccc2)CO1", "note": "(stereo not drawn) [oxazinane-dione 9]", "values": [{"measurement": "stability", "setting": "[10]", "result": "unstable"}]}]}
